# Test results from the OligoGym collection.
# These antisense oligonucleotides have a phosphorothioate backbone; sugars and methylation of C are not fully specified.
# Columns and labels:
# Conditions in all cases: ASO
# MAP2K2 = molecular target: MAP2K2
# MAP3K5 = molecular target: MAP3K5
# BIRC5 = molecular target: BIRC5
# XIAP = molecular target: XIAP
# Further: test concentration or dose not given here.
sequence,measurement,setting,value
TCCACCAGGTTTGCCTCG,remaining target (mRNA or protein) (fraction of control),MAP2K2,0.14
ACCGGCTTATAGTGTCTTCA,remaining target (mRNA or protein) (fraction of control),MAP3K5,0.73
CAAGTCTGGCTCGTTCTC,remaining target (mRNA or protein) (fraction of control),BIRC5,≥ 1
TGACTAGATGTCCACAAGGA,remaining target (mRNA or protein) (fraction of control),XIAP,0.61
CAAAACTGTTAAAAGTCATC,remaining target (mRNA or protein) (fraction of control),XIAP,≥ 1
AACACACCGTTGGGCAGC,remaining target (mRNA or protein) (fraction of control),MAP2K2,0.13
TCCACCAGCATGGAACAATT,remaining target (mRNA or protein) (fraction of control),XIAP,0.71
TAATGGAATTCAATCCTGAT,remaining target (mRNA or protein) (fraction of control),XIAP,0.83
GAACTATCTGATTGTCATGG,remaining target (mRNA or protein) (fraction of control),MAP3K5,0.83
ACAATACATGGCAGGGTTCC,remaining target (mRNA or protein) (fraction of control),XIAP,0.41
TCGCAGTTTCCTCAAATT,remaining target (mRNA or protein) (fraction of control),BIRC5,0.63
GGCCTCGCTCTCGGCCACCA,remaining target (mRNA or protein) (fraction of control),MAP3K5,0.03
TGTGTTCCATGCAAATGC,remaining target (mRNA or protein) (fraction of control),MAP2K2,0.75
CTCTGTCACCATTTTCATCA,remaining target (mRNA or protein) (fraction of control),MAP3K5,0.41
AGGACTGTGACAGCCTCA,remaining target (mRNA or protein) (fraction of control),BIRC5,0.38
AGCTTCCTGGCCATGATG,remaining target (mRNA or protein) (fraction of control),MAP2K2,0.36
ACAGGAAGGCTGGTGGCA,remaining target (mRNA or protein) (fraction of control),BIRC5,0.3
TCATCGTCTTTGAGTTCG,remaining target (mRNA or protein) (fraction of control),MAP2K2,0.45
CATCTCTCCGGGCCGGGCAG,remaining target (mRNA or protein) (fraction of control),MAP3K5,0.61
CCACGCGAACAAAGCTGT,remaining target (mRNA or protein) (fraction of control),BIRC5,0.38
AAGCAGCCACTGTTACCA,remaining target (mRNA or protein) (fraction of control),BIRC5,0.36
TGAGAAAGGGCTGCCAGG,remaining target (mRNA or protein) (fraction of control),BIRC5,0.54
CAGCTCAAGGGCGCCGCGCT,remaining target (mRNA or protein) (fraction of control),MAP3K5,0.59
GAGGAGCGGCCAGCATGT,remaining target (mRNA or protein) (fraction of control),BIRC5,0.53
CTGTGCTGGACTTTGGTG,remaining target (mRNA or protein) (fraction of control),MAP2K2,0.42
GAAGCCGGGTGAGCGGGAAG,remaining target (mRNA or protein) (fraction of control),MAP3K5,0.34
TTTGAAAATGTTGATCTC,remaining target (mRNA or protein) (fraction of control),BIRC5,0.92
GTCACTGTAGAAGGCCCC,remaining target (mRNA or protein) (fraction of control),MAP2K2,0.38
CCTGGAAGTGGTGCAGCC,remaining target (mRNA or protein) (fraction of control),BIRC5,0.84
GGATGGTGCAGAAGCCCGAG,remaining target (mRNA or protein) (fraction of control),MAP3K5,0.5
CTTCCTCCGGGCCAGCAT,remaining target (mRNA or protein) (fraction of control),MAP2K2,0.37
GGTGCTCTCCGCAGGGTG,remaining target (mRNA or protein) (fraction of control),MAP2K2,0.2
TGCTCATCTCTCCGGGCCGG,remaining target (mRNA or protein) (fraction of control),MAP3K5,0.4
TGTTGTTAAACAGTAGAG,remaining target (mRNA or protein) (fraction of control),BIRC5,≥ 1
TCTGCTTTCAGTGTCCGTGA,remaining target (mRNA or protein) (fraction of control),MAP3K5,0.21
CCGAATTCCCTTGACATCTC,remaining target (mRNA or protein) (fraction of control),MAP3K5,0.62
GGTTAATTCTTCAAACTG,remaining target (mRNA or protein) (fraction of control),BIRC5,≥ 1
CAAATTTAGAAATACTCACT,remaining target (mRNA or protein) (fraction of control),MAP3K5,0.85
CGCTGCCCGGCGGCGGCTCG,remaining target (mRNA or protein) (fraction of control),MAP3K5,0.78
CCGTGTGGAGAACGTGAC,remaining target (mRNA or protein) (fraction of control),BIRC5,0.78
CAGTAACATCTGTCTTTGTG,remaining target (mRNA or protein) (fraction of control),MAP3K5,0.62
CTGTCTCCTCATCCACCT,remaining target (mRNA or protein) (fraction of control),BIRC5,0.59
AGCGTCGCCCGTCCCCAG,remaining target (mRNA or protein) (fraction of control),MAP2K2,0.15
CTTGAGGTACCATGCTGGTG,remaining target (mRNA or protein) (fraction of control),MAP3K5,0.36
AAAGAGAGAGAGAGAGAG,remaining target (mRNA or protein) (fraction of control),BIRC5,0.82
CTTTCAAGACAAAACAGG,remaining target (mRNA or protein) (fraction of control),BIRC5,≥ 1
GTTCACGAGGATGTTGGA,remaining target (mRNA or protein) (fraction of control),MAP2K2,0.82
CGTTCACAATATAGTCCA,remaining target (mRNA or protein) (fraction of control),MAP2K2,0.4
ATGTTGTTGGCCATGCTGAA,remaining target (mRNA or protein) (fraction of control),MAP3K5,0.31
TCCGCCTCCGTGCTCATCTC,remaining target (mRNA or protein) (fraction of control),MAP3K5,0.12
TCTAATGTTCAGGATTATTT,remaining target (mRNA or protein) (fraction of control),MAP3K5,≥ 1
TTCGTCCGCCTCCGTGCTCA,remaining target (mRNA or protein) (fraction of control),MAP3K5,0.18
CCAGAAGCTGCCCGGCGGCG,remaining target (mRNA or protein) (fraction of control),MAP3K5,0.56
CCTCCGTGCTCATCTCTCCG,remaining target (mRNA or protein) (fraction of control),MAP3K5,0.09
CAGATGTCCGACTGCACC,remaining target (mRNA or protein) (fraction of control),MAP2K2,0.32
CATCAACAAGCAAGTCGTTA,remaining target (mRNA or protein) (fraction of control),MAP3K5,0.37
AGGGACACTGCCTTCTTC,remaining target (mRNA or protein) (fraction of control),BIRC5,0.57
CGATGGCACGGCGCACTT,remaining target (mRNA or protein) (fraction of control),BIRC5,0.28
GTTTTGTTTTGTAACCTA,remaining target (mRNA or protein) (fraction of control),MAP2K2,0.72
CTCCTTCTTCCCCGTCGA,remaining target (mRNA or protein) (fraction of control),MAP2K2,0.4
ACAGGCAGAAGCACCTCT,remaining target (mRNA or protein) (fraction of control),BIRC5,≥ 1
TTCTTGAATGTAGAGATG,remaining target (mRNA or protein) (fraction of control),BIRC5,≥ 1
CACTTCTTCCACCTCGGA,remaining target (mRNA or protein) (fraction of control),MAP2K2,0.31
TTGGCTTTCTGGGTGAGA,remaining target (mRNA or protein) (fraction of control),MAP2K2,0.83
TTTCGAAGTCATCGTCTT,remaining target (mRNA or protein) (fraction of control),MAP2K2,0.56
GCCGGCTGACAAGTCGGCTC,remaining target (mRNA or protein) (fraction of control),MAP3K5,0.43
TCACCCCGAAGTCACACA,remaining target (mRNA or protein) (fraction of control),MAP2K2,0.56
CGTGCCCACGAAGGAGTT,remaining target (mRNA or protein) (fraction of control),MAP2K2,0.26
TGTCAACCCCTTCATGAAGC,remaining target (mRNA or protein) (fraction of control),MAP3K5,0.19
